From patent publication US5061794A, “Cephalosporin derivatives, and antibacterial agents” (priority 1986, dated 1991)
Values after ≈ are worked out from the molar mass of the structure shown. Where two headings read alike, the source gives them in different places.

Tests used:
K. pneumoniae PCI-602 = assay: in vitro antibacterial activity, agar plate dilution method (MIC); format: cell-based; conditions: 10^6 CFU/ml; for Minimum Inhibitory Concentration (MIC): K. pneumoniae PCI-602
Description: (§1) The in vitro antibacterial activities of the compounds of the present invention against various microorganisms, were measured by the following agar plate dilution method. One platinum loopfull of each test microorganism incubated overnight in Mueller Hinton broth, was inoculated to Mueller Hinton agar (inoculum size: 10^6 CFU/ml). Such culture media containing various antibiotics in various concentrations were prepared. After incubation at 37° C. for 16 hours, the minimum inhibitory concentrations (MIC: μg/ml) were measured.

P. vulgaris No. 33 = assay: as above; format: cell-based; conditions: *P. vulgaris No. 33, lactamase-producing strain; 10^6 CFU/ml
Description: as §1

E. coli NIHJ JC2 = assay: as above; format: cell-based; conditions: for Minimum Inhibitory Concentration (MIC): E. coli NIHJ JC2, 10^6 CFU/ml, 37° C., 16 hours
Description: as §1

E. cloacae Nek 39 = assay: as above; format: cell-based; conditions: 10^6 CFU/ml; for Minimum Inhibitory Concentration (MIC): *E. cloacae Nek 39, lactamase-producing strain
Description: as §1

K. pneumoniae No. 42 = assay: as above; format: cell-based; conditions: *K. pneumoniae No. 42, lactamase-producing strain; 10^6 CFU/ml
Description: as §1

S. aureus 209P NIHJ-JC1 = assay: as above; format: cell-based; conditions: 10^6 CFU/ml, 37° C., 16 hours; for MIC: Staphylococcus aureus, 16 h
Description: as §1

S. marcescens IAM 1184 = assay: as above; format: cell-based; conditions: S. marcescens IAM 1184, 10^6 CFU/ml
Description: as §1

S. marcescens No. 16-2 = assay: as above; format: cell-based; conditions: for Minimum Inhibitory Concentration (MIC): *S. marcescens No. 16-2, lactamase-producing strain; for MIC: Serratia marcescens, NO.162, 16 h
Description: as §1

E. coli GN5482 = assay: as above; format: cell-based; conditions: for Minimum Inhibitory Concentration (MIC): *E. coli GN5482, lactamase-producing strain; for MIC: Escherichia coli, GN5482, 16 h
Description: as §1

M. morganii GN5407 = assay: as above; format: cell-based; conditions: *M. morganii GN5407, lactamase-producing strain; 10^6 CFU/ml
Description: as §1

P. vulgaris HX-19 = assay: as above; format: cell-based; conditions: for MIC: Proteus vulgaris, HX19, 16 h, read-out: Minimum Inhibitory Concentration (MIC)
Description: as §1

E. cloacae 963 = assay: as above; format: cell-based; conditions: 10^6 CFU/ml
Description: as §1

K. oxytoca GN10650 = assay: as above; format: cell-based; conditions: *K. oxytoca GN10650, lactamase-producing strain; 10^6 CFU/ml
Description: as §1

A. calcoaceticus No. 4 = assay: as above; format: cell-based, Acinetobacter calcoaceticus; conditions: 10^6 CFU/ml; for MIC: Acinetobacter calcoaceticus, NO.4, 16 h
Description: as §1

E. coli CSH2 (RK1) = assay: microbe, parasite or virus in culture; format: cell-based; conditions: *E. coli CSH2 (RK1), lactamase-producing strain; 10^6 CFU/ml
Description: as §1

E. coli CSH(RE45) = assay: microbe, parasite or virus in culture; format: cell-based; conditions: *E. coli CSH(RE45), lactamase-producing strain; 10^6 CFU/ml
Description: as §1

Ps. aeruginosa IF03445 = assay: in vitro antibacterial activity, agar plate dilution method (MIC); format: cell-based, Pseudomonas aeruginosa; conditions: Ps. aeruginosa IF03445; 10^6 CFU/ml
Description: as §1

Ps. aeruginosa AKR17 = assay: as above; format: cell-based, Pseudomonas aeruginosa; conditions: 10^6 CFU/ml; for MIC: Pseudomonas aeruginosa
Description: as §1

Ps. aeruginosa AK 109 = assay: as above; format: cell-based, Pseudomonas aeruginosa; conditions: Ps. aeruginosa AK 109, 10^6 CFU/ml
Description: as §1

Ps. cepacia 23 = assay: as above; format: cell-based, Pseudomonas cepacia; conditions: Ps. cepacia 23, 10^6 CFU/ml; for MIC: Burkholderia cepacia, 16 h, read-out: Minimum Inhibitory Concentration (MIC)
Description: as §1

[1] = Enterobacter cloacae, 16 h, E. cloacae 963, read-out: Minimum Inhibitory Concentration (MIC)
[2] = read-out: Minimum Inhibitory Concentration (MIC)

Structure (SMILES) | Minimum Inhibitory Concentration (MIC) (K. pneumoniae PCI-602) [µg/mL] | Minimum Inhibitory Concentration (MIC) (P. vulgaris No. 33) [µg/mL] | Minimum Inhibitory Concentration (MIC) (E. coli NIHJ JC2) [µg/mL] | Minimum Inhibitory Concentration (MIC) (E. cloacae Nek 39) [µg/mL] | Minimum Inhibitory Concentration (MIC) (K. pneumoniae No. 42) [µg/mL] | Minimum Inhibitory Concentration (MIC) (S. marcescens IAM 1184) [µg/mL] | Minimum Inhibitory Concentration (MIC) (S. marcescens No. 16-2; 10^6 CFU/ml) [µg/mL] | Minimum Inhibitory Concentration (MIC) (E. coli GN5482; 10^6 CFU/ml) [µg/mL] | Minimum Inhibitory Concentration (MIC) (M. morganii GN5407) [µg/mL] | Minimum Inhibitory Concentration (MIC) (P. vulgaris HX-19; P. vulgaris HX-19, 10^6 CFU/ml) [µg/mL] | MIC (E. cloacae 963; [1]) [µg/mL] | Minimum Inhibitory Concentration (MIC) (K. oxytoca GN10650) [µg/mL] | Minimum Inhibitory Concentration (MIC) (A. calcoaceticus No. 4; A. calcoaceticus No. 4) [µg/mL] | Minimum Inhibitory Concentration (MIC) (E. coli CSH2 (RK1)) [µg/mL] | Minimum Inhibitory Concentration (MIC) (E. coli CSH(RE45)) [µg/mL] | Minimum Inhibitory Concentration (MIC) (Ps. aeruginosa IF03445) [µg/mL] | Minimum Inhibitory Concentration (MIC) (Ps. aeruginosa AKR17; Ps. aeruginosa AKR17) [µg/mL] | Minimum Inhibitory Concentration (MIC) (Ps. aeruginosa AK 109) [µg/mL] | Minimum Inhibitory Concentration (MIC) (Ps. cepacia 23) [µg/mL] | MIC (Ps. cepacia 23) [µg/mL] | also measured
Nc1nc(/C(=N/OC(C(=O)O)c2ccccc2)C(=O)N[C@@H]2C(=O)N3C(C(=O)O)=C(CSc4nnc(-c5ccc(O)c(O)c5)o4)CS[C@H]23)cs1 (single isomer, unassigned) [Example 24 DB, disodium 78-[2-(2-aminothiazol-4-yl)-2-(α-carboxylatebenzyloxyimino)acetamido]-3-[5-(3,4-dihydroxyphenyl)-1,3,4-oxadiazol-2-yl]-thiomethyl-3-cephem-4-carboxylate] | < 0.006 | 0.1 | 0.39 | 0.05 | 0.025 | 0.05 | 0.78 | 0.39 | 0.2 | 0.05 | 0.1 | 0.025 | 0.05 | 0.0125 | 0.0125 | 1.56 | 0.78 | 0.2 | < 0.006 | – | MIC (S. aureus 209P NIHJ-JC1; S. aureus 209P NIHJ-JC1, read-out: Minimum Inhibitory Concentration (MIC)): 25 µg/mL
Nc1nc(C(=NOC(C(=O)O)c2ccc(O)c(O)c2)C(=O)NC2C(=O)N3C(C(=O)O)=C(CSc4nnc(-c5ccc(O)c(O)c5)s4)CSC23)cs1 (single isomer, unassigned) [Example 38 DA, disodium 7β-{2-(2-aminothiazol-4-yl)-2-(α-carboxylate-3,4-dihydroxybenzyloxyimino)acetamido]-3-[5-(3,4-dihydroxyphenyl)-1,3,4-thiadiazol-2-yl]thiomethyl-3-cephem-4-carboxylate] | – | 0.025 | – | 0.1 | 0.0125 | 0.025 | – | – | 0.05 | – | – | 0.025 | – | < 0.006 | < 0.006 | 0.39 | – | – | – | < 0.006 | MIC (K. pneumoniae PCI-602; Klebsiella pneumoniae, PCI602, 16 h, read-out: Minimum Inhibitory Concentration (MIC), K. pneumoniae PCI-602): < 0.006 µg/mL; MIC (E. coli NIHJ JC2; Escherichia coli, NIHJJC2, 16 h, read-out: Minimum Inhibitory Concentration (MIC), E. coli NIHJ JC2, 10^6 CFU/ml, 37° C.): 0.2 µg/mL; MIC (S. aureus 209P NIHJ-JC1; read-out: Minimum Inhibitory Concentration (MIC), S. aureus 209P NIHJ-JC1): 0.78 µg/mL; MIC (S. marcescens No. 16-2; [2]): 0.2 µg/mL; MIC (E. coli GN5482; [2]): 0.2 µg/mL; MIC (P. vulgaris HX-19): 0.0125 µg/mL; MIC (E. cloacae 963; Enterobacter cloacae, 963, 16 h, read-out: Minimum Inhibitory Concentration (MIC), E. cloacae 963): 0.05 µg/mL; MIC (A. calcoaceticus No. 4; A. calcoaceticus No. 4, read-out: Minimum Inhibitory Concentration (MIC)): 0.025 µg/mL; MIC (Ps. aeruginosa AKR17; 16 h, Ps. aeruginosa AKR17, read-out: Minimum Inhibitory Concentration (MIC)): 0.1 µg/mL; MIC (Ps. aeruginosa AK 109; Pseudomonas aeruginosa, AK109, 16 h, read-out: Minimum Inhibitory Concentration (MIC)): 0.2 µg/mL
Nc1nc(C(=NOC(C(=O)O)c2ccc(O)c(O)c2)C(=O)NC2C(=O)N3C(C(=O)O)=C(CSc4nnc(-c5ccc(O)c(O)c5)s4)CSC23)cs1 (single isomer, unassigned) [Example 38 DB, disodium 7β-{2-(2-aminothiazol-4-yl)-2-(α-carboxylate-3,4-dihydroxybenzyloxyimino)acetamido]-3-[5-(3,4-dihydroxyphenyl)-1,3,4-thiadiazol-2-yl]thiomethyl-3-cephem-4-carboxylate] | < 0.006 | 0.1 | 0.78 | 0.39 | 0.1 | 0.1 | 6.25 | 0.78 | 0.2 | – | 0.2 | 0.1 | 0.05 | 0.025 | 0.0125 | 3.12 | – | 0.78 | < 0.006 | – | Minimum Inhibitory Concentration (MIC) (S. aureus 209P NIHJ-JC1; S. aureus 209P NIHJ-JC1): 1.56 µg/mL; MIC (P. vulgaris HX-19; P. vulgaris HX-19, 10^6 CFU/ml): 0.025 µg/mL; MIC (Ps. aeruginosa AKR17; AKR17, 16 h, read-out: Minimum Inhibitory Concentration (MIC), Ps. aeruginosa AKR17): 1.56 µg/mL
Nc1nc(C(=NOC(C(=O)O)c2ccccc2)C(=O)NC2C(=O)N3C(C(=O)O)=C(CSc4nc(C(=O)O)c(-c5ccc(O)c(O)c5)s4)CSC23)cs1 (single isomer, unassigned) [Example 51 DA] | 0.0125 | 0.39 | 3.12 | – | 0.2 | – | – | – | 0.2 | 0.2 | 0.2 (≈ 0.255 µM) | 0.1 | – | 0.05 | 0.1 | 1.56 | 1.56 | 1.56 | – | < 0.006 | MIC (E. cloacae Nek 39; Enterobacter cloacae, NEK39, 16 h, read-out: Minimum Inhibitory Concentration (MIC), *E. cloacae Nek 39, lactamase-producing strain): 0.1 µg/mL (≈ 0.127 µM); Minimum Inhibitory Concentration (MIC) (S. aureus 209P NIHJ-JC1; S. aureus 209P NIHJ-JC1): 100 µg/mL; MIC (S. marcescens IAM 1184; Serratia marcescens, IAM1184, 16 h, read-out: Minimum Inhibitory Concentration (MIC)): 0.1 µg/mL (≈ 0.127 µM); MIC (S. marcescens No. 16-2; read-out: Minimum Inhibitory Concentration (MIC), *S. marcescens No. 16-2, lactamase-producing strain, 10^6 CFU/ml): 1.56 µg/mL (≈ 1.99 µM); MIC (E. coli GN5482; read-out: Minimum Inhibitory Concentration (MIC), *E. coli GN5482, lactamase-producing strain, 10^6 CFU/ml): 1.56 µg/mL (≈ 1.99 µM); MIC (A. calcoaceticus No. 4; read-out: Minimum Inhibitory Concentration (MIC), A. calcoaceticus No. 4): 0.1 µg/mL (≈ 0.127 µM)
